Data reported in patent publication US20250215029A1 (Recludix Pharma, Inc., priority 2022, published 2025).

Tests used:
[1] = molecular target: T1, Recombinant STAT6 protein (STAT6 (W123-T658)) (Homo sapiens, UniProt P42226); experiment: STAT6 Fluorescence Polarization (FP) Assay; assay type: binding; details: STAT6 (W123-T658) 250 nM, probe 5-FAM-Ap[…]-NH2 2 nM, 45-minute incubation; read-out: STAT6 (FP assay IC50 class)
T1 construct: Recombinant STAT6 protein (STAT6 (W123-T658))
T1 sequence (P42226 123-658): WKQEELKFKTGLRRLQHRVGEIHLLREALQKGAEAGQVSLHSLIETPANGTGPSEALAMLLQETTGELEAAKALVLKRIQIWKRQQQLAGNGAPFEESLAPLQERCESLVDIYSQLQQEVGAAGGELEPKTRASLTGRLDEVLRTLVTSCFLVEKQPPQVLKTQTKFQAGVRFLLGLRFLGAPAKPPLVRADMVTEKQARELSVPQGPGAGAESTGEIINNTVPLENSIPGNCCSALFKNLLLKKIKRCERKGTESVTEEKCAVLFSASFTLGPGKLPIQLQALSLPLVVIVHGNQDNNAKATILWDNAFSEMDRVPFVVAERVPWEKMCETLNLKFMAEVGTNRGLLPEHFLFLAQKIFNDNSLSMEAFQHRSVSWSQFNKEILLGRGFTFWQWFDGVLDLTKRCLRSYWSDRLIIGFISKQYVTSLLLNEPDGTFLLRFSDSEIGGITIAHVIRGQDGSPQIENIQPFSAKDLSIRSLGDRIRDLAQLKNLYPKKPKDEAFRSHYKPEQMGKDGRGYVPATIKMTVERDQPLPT
In short: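 Displacement of a fluorescent phosphotyrosine peptide (2 nM) from 250 nM STAT6 (W123-T658) is measured by polarization after a 45-minute room-temperature incubation. Compounds are titrated serially at 1% DMSO, and IC50 values derive from regression of mP on log concentration.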

[2] = molecular target: T2, Recombinant STAT3 protein (STAT3 (G127-I722)) (Homo sapiens, UniProt P40763); experiment: STAT3 Fluorescence Polarization (FP) Assay; assay type: binding; details: STAT3 (G127-I722) 25 nM, probe 5-FAM-GpYLPQTV-NH2 2 nM, 45-minute incubation; read-out: STAT3 (FP assay IC50 class)
T2 construct: Recombinant STAT3 protein (STAT3 (G127-I722))
In short: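 Displacement of a fluorescent phosphotyrosine peptide (5-FAM-GpYLPQTV-NH2, 2 nM) from 25 nM recombinant STAT3 G127-I722 was monitored by FP after 45 min at room temperature.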

T2 sequence (P40763 127-722): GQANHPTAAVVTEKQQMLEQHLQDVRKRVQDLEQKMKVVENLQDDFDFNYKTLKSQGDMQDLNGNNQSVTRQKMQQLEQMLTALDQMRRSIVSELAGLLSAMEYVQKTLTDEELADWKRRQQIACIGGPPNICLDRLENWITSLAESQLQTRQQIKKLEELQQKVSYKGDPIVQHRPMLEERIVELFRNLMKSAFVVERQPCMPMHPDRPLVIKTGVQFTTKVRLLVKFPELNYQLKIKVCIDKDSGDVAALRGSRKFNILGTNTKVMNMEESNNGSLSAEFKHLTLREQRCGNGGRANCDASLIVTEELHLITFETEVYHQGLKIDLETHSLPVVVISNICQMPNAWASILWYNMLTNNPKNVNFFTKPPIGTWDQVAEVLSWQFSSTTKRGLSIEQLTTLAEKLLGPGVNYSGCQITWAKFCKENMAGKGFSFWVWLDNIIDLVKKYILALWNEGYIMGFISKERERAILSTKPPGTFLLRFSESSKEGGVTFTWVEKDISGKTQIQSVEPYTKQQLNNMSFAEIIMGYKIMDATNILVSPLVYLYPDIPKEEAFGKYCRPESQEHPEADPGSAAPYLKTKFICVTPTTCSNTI

| IC50 [1] [µM] | IC50 [2] [µM] | Structure (SMILES) |
| --- | --- | --- |
| 3 to 30 | < 0.1 | CCOc1ccncc1C1CN(C(=O)[C@@H]2CC[C@@H]3CCC[C@H](NC(=O)c4cc5cc(C(F)P(=O)(O)O)ccc5s4)C(=O)N32)C1 (stereo partly drawn) [Compound 597, ((2-(((3S,6S,9aS)-3-(3-(4-ethoxypyridin-3-yl)azetidine-1-carbonyl)-5-oxooctahydro-1H-pyrrolo[1,2-a]azepin-6-yl)carbamoyl)benzo [b]thiophen-5-yl)fluoromethyl) phosphonic acid] |
| 3 to 30 | < 0.1 | O=C(N[C@H]1CCC[C@H]2CC[C@@H](C(=O)N3CC(c4cnccc4OC4COC4)C3)N2C1=O)c1cc2cc(C(F)P(=O)(O)O)ccc2s1 (stereo partly drawn) [Compound 598, (fluoro(2-(((3S,6S,9aS)-3-(3-(4-(oxetan-3-yloxy)pyridin-3-yl)azetidine-1-carbonyl)-5-oxooctahydro-1H-pyrrolo[1,2-a]azepin-6-yl)carbamoyl)benzo [b]thiophen-5-yl)methyl) phosphonic acid] |
| ≤ 0.3 | 1 to 10 | O=C(N[C@H]1CCCC[C@H]2CC[C@@H](C(=O)N3C(=O)N(c4cccc5c4OC(F)(F)O5)C(=O)C34CC4)N2C1=O)c1cc2cc(C(F)P(=O)(O)O)ccc2s1 (stereo partly drawn) [Compound 601, ((2-(((3S,6S,10aS)-3-(6-(2,2-difluorobenzo[d][1, 3]dioxol-4-yl)-5,7-dioxo-4,6-diazaspiro[2.4]heptane-4-carbonyl)-5-oxodecahydropyrrolo [1,2-a]azocin-6-yl)carbamoyl)benzo [b]thiophen-5-yl)fluoromethyl) phosphonic acid] |
| 3 to 30 | < 0.1 | CC1C(c2cccnc2)CN1C(=O)[C@@H]1CC[C@@H]2CCC[C@H](NC(=O)c3cc4cc(C(F)P(=O)(O)O)ccc4s3)C(=O)N21 (stereo partly drawn) [Compound 602, (fluoro(2-(((3S,6S,9aS)-3-(2-methyl-3-(pyridin-3-yl)azetidine-1-carbonyl)-5-oxooctahydro-1H-pyrrolo[1,2-a]azepin-6-yl)carbamoyl)benzo [b]thiophen-5-yl)methyl) phosphonic acid] |
| 3 to 30 | < 0.1 | C[C@@H]1CC[C@H](NC(=O)c2cc3cc(CP(=O)(O)O)ccc3s2)C(=O)N2[C@H](CC[C@H]2C(=O)N2CC(c3cnccc3F)C2)C1 [Compound 603, ((2-(((3S,6S,9R,10aR)-3-(3-(4-fluoropyridin-3-yl)azetidine-1-carbonyl)-9-methyl-5-oxodecahydropyrrolo [1,2-a]azocin-6-yl)carbamoyl)benzo [b]thiophen-5-yl)methyl) phosphonic acid] |
| 3 to 30 | 0.1 to 1 | O=C(N[C@H]1CCC[C@H]2CC[C@@H](C(=O)N3CCC(c4ccncn4)CC3)N2C1=O)c1cc2cc(C(F)P(=O)(O)O)ccc2s1 (stereo partly drawn) [Compound 604, (fluoro(2-(((3S,6S,9aS)-5-oxo-3-(4-(pyrimidin-4-yl)piperidine-1-carbonyl)octahydro-1H-pyrrolo[1,2-a]azepin-6-yl)carbamoyl)benzo [b]thiophen-5-yl)methyl) phosphonic acid] |
| 3 to 30 | < 0.1 | O=C(N[C@H]1CCC[C@H]2CC[C@@H](C(=O)N3CC(c4cncnc4O)C3)N2C1=O)c1cc2cc(CP(=O)(O)O)ccc2s1 [Compound 605, ((2-(((3S,6S,9aS)-3-(3-(4-hydroxypyrimidin-5-yl)azetidine-1-carbonyl)-5-oxooctahydro-1H-pyrrolo[1,2-a]azepin-6-yl)carbamoyl)benzo [b]thiophen-5-yl)methyl) phosphonic acid] |
| 3 to 30 | < 0.1 | CNc1ccncc1C1CN(C(=O)[C@@H]2CC[C@@H]3CCC[C@H](NC(=O)c4cc5cc(CP(=O)(O)O)ccc5s4)C(=O)N32)C1 [Compound 606, ((2-(((3S,6S,9aS)-3-(3-(4-(methylamino)pyridin-3-yl)azetidine-1-carbonyl)-5-oxooctahydro-1H-pyrrolo[1,2-a]azepin-6-yl)carbamoyl)benzo [b]thiophen-5-yl)methyl) phosphonic acid] |
| 0.3 to 3 | < 0.1 | Cn1ncc(C2CN(C(=O)[C@@H]3CC[C@@H]4CCC[C@H](NC(=O)c5cc6cc(C(F)P(=O)(O)O)ccc6s5)C(=O)N43)C2)c1O (stereo partly drawn) [Compound 607, (fluoro(2-(((3S,6S,9aS)-3-(3-(5-hydroxy-1-methyl-1H-pyrazol-4-yl)azetidine-1-carbonyl)-5-oxooctahydro-1H-pyrrolo[1,2-a]azepin-6-yl)carbamoyl)benzo [b]thiophen-5-yl)methyl) phosphonic acid] |
| 0.3 to 3 | < 0.1 | O=C(N[C@H]1CCC[C@H]2CC[C@@H](C(=O)N3CC(c4ccccc4O)C3)N2C1=O)c1cc2cc(C(F)P(=O)(O)O)ccc2s1 (stereo partly drawn) [Compound 608, (fluoro(2-(((3S,6S,9aS)-3-(3-(2-hydroxyphenyl)azetidine-1-carbonyl)-5-oxooctahydro-1H-pyrrolo[1,2-a]azepin-6-yl)carbamoyl)benzo [b]thiophen-5-yl)methyl) phosphonic acid] |
| 3 to 30 | 0.1 to 1 | O=C(N[C@H]1CCC[C@H]2CC[C@@H](C(=O)N3CC(n4cnccc4=O)C3)N2C1=O)c1cc2cc(C(F)P(=O)(O)O)ccc2s1 (stereo partly drawn) [Compound 609, (fluoro(2-(((3S,6S,9aS)-5-oxo-3-(3-(6-oxopyrimidin-1(6H)-yl)azetidine-1-carbonyl)octahydro-1H-pyrrolo[1,2-a]azepin-6-yl)carbamoyl)benzo [b]thiophen-5-yl)methyl) phosphonic acid] |
| 3 to 30 | 0.1 to 1 | O=C(N[C@H]1CCC[C@H]2CC[C@@H](C(=O)N3CC(c4ccncc4F)C3)N2C1=O)c1cc2cc(C(F)P(=O)(O)O)ccc2s1 (stereo partly drawn) [Compound 610, (fluoro(2-(((3S,6S,9aS)-3-(3-(3-fluoropyridin-4-yl)azetidine-1-carbonyl)-5-oxooctahydro-1H-pyrrolo[1,2-a]azepin-6-yl)carbamoyl)benzo [b]thiophen-5-yl)methyl) phosphonic acid] |
| 3 to 30 | 0.1 to 1 | O=C(N[C@H]1CCC[C@H]2CC[C@@H](C(=O)N3CC(c4ccncc4)C3)N2C1=O)c1cc2cc(C(F)P(=O)(O)O)ccc2s1 (stereo partly drawn) [Compound 611, (fluoro(2-(((3S,6S,9aS)-5-oxo-3-(3-(pyridin-4-yl)azetidine-1-carbonyl)octahydro-1H-pyrrolo[1,2-a]azepin-6-yl)carbamoyl)benzo [b]thiophen-5-yl)methyl) phosphonic acid] |
| 3 to 30 | < 0.1 | CC(C)Oc1ccncc1C1CN(C(=O)[C@@H]2CC[C@@H]3CCC[C@H](NC(=O)c4cc5cc(C(F)P(=O)(O)O)ccc5s4)C(=O)N32)C1 (stereo partly drawn) [Compound 612, (fluoro(2-(((3S,6S,9aS)-3-(3-(4-isopropoxypyridin-3-yl)azetidine-1-carbonyl)-5-oxooctahydro-1H-pyrrolo[1,2-a]azepin-6-yl)carbamoyl)benzo [b]thiophen-5-yl)methyl) phosphonic acid] |
| 3 to 30 | 0.1 to 1 | O=C(N[C@H]1CCC[C@H]2CC[C@@H](C(=O)N3CC(n4cccn4)C3)N2C1=O)c1cc2cc(C(F)P(=O)(O)O)ccc2s1 (stereo partly drawn) [Compound 613, ((2-(((3S,6S,9aS)-3-(3-(1H-pyrazol-1-yl)azetidine-1-carbonyl)-5-oxooctahydro-1H-pyrrolo[1,2-a]azepin-6-yl)carbamoyl)benzo [b]thiophen-5-yl)fluoromethyl) phosphonic acid] |
| 3 to 30 | 0.1 to 1 | O=C(N[C@H]1CCC[C@H]2CC[C@@H](C(=O)N3CC(n4cc(F)cn4)C3)N2C1=O)c1cc2cc(C(F)P(=O)(O)O)ccc2s1 (stereo partly drawn) [Compound 614, (fluoro(2-(((3S,6S,9aS)-3-(3-(4-fluoro-1H-pyrazol-1-yl)azetidine-1-carbonyl)-5-oxooctahydro-1H-pyrrolo[1,2-a]azepin-6-yl)carbamoyl)benzo [b]thiophen-5-yl)methyl) phosphonic acid] |
| 3 to 30 | < 0.1 | COCCOC1(c2ccccn2)CN(C(=O)[C@@H]2CC[C@@H]3CCCC[C@H](NC(=O)c4cc5cc(C(F)P(=O)(O)O)ccc5s4)C(=O)N32)C1 (stereo partly drawn) [Compound 615, (fluoro(2-(((3S,6S,10aS)-3-(3-(2-methoxyethoxy)-3-(pyridin-2-yl)azetidine-1-carbonyl)-5-oxodecahydropyrrolo[1,2-a]azocin-6-yl)carbamoyl)benzo [b]thiophen-5-yl)methyl) phosphonic acid] |
